The record followed here is patent US20150309042A1, “FLUOROGENIC DENDRIMER REPORTERS AND RELATED METHODS OF USE” (The Regents of the University of Michigan, priority 2013, published 2015).

Structures are written as SMILES.

A short description of data set [1]: 'click-on' reaction with a representative alkyne-derivatized molecule, fluorescence emission measurement. As to conditions: azidocoumarin free vs. attached to the dendrimer. Type of data set: physicochemical. As to the method:
The fluorogenic properties of the small molecule and dendrimer coumarin reporters were first evaluated by performing the ‘click’ reaction with a representative alkyne-derivatized molecule, 3-(4-(prop-2-yn-1-yloxy)phenyl)propionic acid at room temperature for 12 hours (Scheme 2). […] However, after attaching to the dendrimer, the absorbance of azidocoumarin has red-shifted 20 nm (λmax Ex 340 vs. 360 nm). Following ligation with the alkyne-derivatized molecule, the G5-Coumarin 3 increased its fluorescence 21-fold (FIG. 1). […] This difference in fluorescent enhancement was primarily attributable to the decrease in the background fluorescence intensity of azidocoumarin on the dendrimer reporter. The structure-property relationships are still under investigation.
Experimental Procedure of “Click-on and Probe” Reaction G5-coumarin 3 was dissolved in Cu(II) sulfate (10 mol % per COUlnarin, 1 mg/mL H20 solution) solution. 3-(4-(prop-2-yn-1-yloxy)phenyl)propanoic acid (5 per coumarin, 5 mg/mL DMSO solution) were added. The reaction mixture was incubated at room temperature for 12 h before diluted in H2O for fluorescent emission measurement. […] The excitation and emission spectra were recorded after dilution using H2O.

The next data set relates to KB cells. The experiment in a line: detection of EdU incorporated into newly synthesized DNA of KB cells by 'click' ligation and flow cytometry. Format: cell-based. The text has this:
The efficacy of the fluorogenic reporters in monitoring metabolite flux in a typical cell culture system was next evaluated. 5-ethynyl-2′-deoxyuridine (EdU), a nucleoside analogue, incorporation into newly synthesized DNA (Scheme 2), a common molecular biology technique to profile cellular proliferation, was monitored (see, e.g., Hahn, C. G.; Han, L. Y.; Rawson, N. E.; Mirza, N.; Borgmann-Winter, K.; Lenox, R. H.; Arnold, S. E. J Comp Neurol 2005, 483, 154; Salic, A.; Mitchison, T. J. P Natl Acad Sci USA 2008, 105, 2415; Limsirichaikul, S.; Niimi, A.; Fawcett, H.; Lehmann, A.; Yamashita, S.; Ogi, T. Nucleic Acids Res 2009, 37; Yamakoshi, H.; Dodo, K.; Okada, M.; Ando, J.; Palonpon, A.; Fujita, K.; Kawata, S.; Sodeoka, M. J Am Chem Soc 2011, 133, 6102). Traditionally, 5-bromo-2′-deoxyuridine (BrdU), an antibody-specific nucleoside analogue, has been used to monitor DNA synthesis but is limited by the complicated processing and signal variability (see, e.g., Declercq, E.; Descamps, J.; Balzarini, J.; Giziewicz, J.; Barr, P. J.; Robins, M. J. J Med Chem 1983, 26, 661). EdU is a DNA base modified with a terminal alkyne group replacing the methyl group in the 5 position and is readily incorporated into newly synthesized DNA during cell proliferation. […] To compare the detection efficacy of the different fluorogenic reporters, the DNA-incorporated EdU molecules were ligated with either the small molecule 3-azido-7-hydroxy coumarin or the dendrimer-coumarin reporters (G5-Coumarin 3) using ‘click’ reactions and then analyzed by flow cytometry. […] Similar to other ‘click’ reaction detection methods with traditional azide fluorescent reporters, detection of EdU incorporation into DNA with the fluorogenic dendrimer reporters retain the accuracy of the traditional assays but reduces background fluorescence greatly improving assay throughput.
EdU Labeling and Staining of Cultured Cells. […] Fluorescence signal intensities from the samples were measured using an Accuri C6 Flow Cytometer (Ann Arbor, Mich.) and data were analyzed using FlowJo 8.7 software (TreeStar).

Take `[N-]=[N+]=Nc1cc2ccc(O)cc2oc1=O` [3-azido-7-hydroxy coumarin]: the “λmax Ex” value in data set [1] is on record as 340 nm. Besides, the “fluorescence intensity after standard wash steps” value with KB cells (KB cells with EdU, after standard wash steps) is “decreased”. Further, the “cell positive rate before wash steps” value with KB cells (KB cells with EdU, no washes) is listed as “much higher degree of cell positive rate”. For the same molecule, the “fluorescent intensity after ligation with DNA-incorporated EdU” value with KB cells (KB cells, 10 μM EdU for 5 hours, reporters at 10 nM and 100 nM) is listed as “increases in fluorescent intensity”.
